pIC50: −log10 of the molar value.
molecular target: T1, Human HPK1, catalytic domain (Homo sapiens, UniProt Q92918); assay: HPK1-SLP76 TR-FRET assay; format: biochemical; details: 75 pM HPK1, 10 uM ATP, 10 nM SLP76, 30 min compound pre-incubation
T1 construct: purchased Carna
T1 sequence (Q92918 1-346): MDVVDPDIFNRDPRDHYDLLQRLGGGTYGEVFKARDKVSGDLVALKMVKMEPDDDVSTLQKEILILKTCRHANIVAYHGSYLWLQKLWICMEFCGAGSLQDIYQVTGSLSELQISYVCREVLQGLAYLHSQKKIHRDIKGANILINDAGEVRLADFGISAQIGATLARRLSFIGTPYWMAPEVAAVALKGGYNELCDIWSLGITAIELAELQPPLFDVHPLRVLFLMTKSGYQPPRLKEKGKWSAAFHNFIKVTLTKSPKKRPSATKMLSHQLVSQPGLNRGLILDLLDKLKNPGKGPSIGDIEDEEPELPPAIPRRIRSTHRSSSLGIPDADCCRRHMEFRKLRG

SMILES | pIC50
Cn1cc([C@@H]2C[C@H]2C(=O)Nc2ncc(C(N)=O)c(Nc3ccccc3Br)n2)cn1 (racemic) [Example 22-1, 4-((2-bromophenyl)amino)-2-((trans)-2-(1-methyl-1H-pyrazol-4-yl)cyclopropane-1-carboxamido)pyrimidine-5-carboxamide] | 6.43
COc1cc2c(cc1Nc1ncc(C(N)=O)c(Nc3c(F)cccc3C(C)OC)n1)CN(C)CC2 (racemic) [Example 23-1, (RAC)-4-((2-fluoro-6-(1-methoxyethyl)phenyl)amino)-2-((6-methoxy-2-methyl-1,2,3,4-tetrahydroisoquinolin-7-yl)amino)pyrimidine-5-carboxamide] | 9.66
COc1cc2c(cc1Nc1ncc(C(N)=O)c(Nc3c(F)cccc3C(C)O)n1)CN(C)CC2 (racemic) [Example 23-2, (RAC)-4-((2-fluoro-6-(1-hydroxyethyl)phenyl)amino)-2-((6-methoxy-2-methyl-1,2,3,4-tetrahydroisoquinolin-7-yl)amino)pyrimidine-5-carboxamide] | 9.09
COc1cc2c(cc1Nc1ncc(C(N)=O)c(Nc3ccccc3C(F)(F)F)n1)CN(C)C(C)C2 (racemic) [Example 23-3, (RAC)-2-((6-methoxy-2,3-dimethyl-1,2,3,4-tetrahydroisoquinolin-7-yl)amino)-4-((2-(trifluoromethyl)phenyl)amino)pyrimidine-5-carboxamide] | 9.55
COc1cc2c(cc1Nc1ncc(C(N)=O)c(Nc3ccccc3Br)n1)CN(C1CC(CO)C1)CC2 (single isomer, unassigned) [Example 9-3, 4-((2-bromophenyl)amino)-2-((2-(3-(hydroxymethyl)cyclobutyl)-6-methoxy-1,2,3,4-tetrahydroisoquinolin-7-yl)amino)pyrimidine-5-carboxamide] | 9.48
COc1cc2c(cc1Nc1ncc(C(N)=O)c(Nc3ccccc3Br)n1)CN(C1CC(CO)C1)CC2 (single isomer, unassigned) [Example 9-4, 4-((2-bromophenyl)amino)-2-((2-(3-(hydroxymethyl)cyclobutyl)-6-methoxy-1,2,3,4-tetrahydroisoquinolin-7-yl)amino)pyrimidine-5-carboxamide] | 9.74
COc1cc2c(cc1Nc1ncc(C(N)=O)c(Nc3ccccc3C(F)(F)F)n1)C(C1CC1)N(C)CC2 (single isomer, unassigned) [Example 20-1, 2-((1-cyclopropyl-6-methoxy-2-methyl-1,2,3,4-tetrahydroisoquinolin-7-yl)amino)-4-((2-(trifluoromethyl)phenyl)amino)pyrimidine-5-carboxamide] | 8.79
COc1cc2c(cc1Nc1ncc(C(N)=O)c(Nc3ccccc3C(F)(F)F)n1)C(C1CC1)N(C)CC2 (single isomer, unassigned) [Example 20-2, 2-((1-cyclopropyl-6-methoxy-2-methyl-1,2,3,4-tetrahydroisoquinolin-7-yl)amino)-4-((2-(trifluoromethyl)phenyl)amino)pyrimidine-5-carboxamide] | 9.92
COc1cc2c(cc1Nc1ncc(C(N)=O)c(Nc3cccc(CO)c3)n1)CN(C)CC2 [Example 1-1, 4-((3-(Hydroxymethyl)phenyl)amino)-2-((6-methoxy-2-methyl-1,2,3,4-tetrahydroisoquinolin-7-yl)amino)pyrimidine-5-carboxamide] | 9.46
COc1cc2c(cc1Nc1ncc(C(N)=O)c(Nc3cccc(CNC(=O)OC(C)(C)C)c3)n1)CN(C)CC2 [Example 2-1, tert-butyl {[3-({5-carbamoyl-2-[(6-methoxy-2-methyl-1,2,3,4-tetrahydroisoquinolin-7-yl)amino]pyrimidin-4-yl}amino)phenylmethyl} carbamate] | 8.80
COc1cc2c(cc1Nc1ncc(C(N)=O)c(Nc3cccc(CN)c3)n1)CN(C)CC2 [Example 2-2, 4-{[3-(aminomethyl)phenyl]-amino}-2-[(6-methoxy-2-methyl-1,2,3,4-tetrahydroisoquinolin-7-yl)amino]pyrimidine-5-carboxamide] | 9.47
COc1cc2c(cc1Nc1ncc(C(N)=O)c(Nc3ccccc3CN)n1)CN(C)CC2 [Example 2-3, 4-{[2-(aminomethyl)phenyl]-amino}-2-[(6-methoxy-2-methy1-1,2,3,4-tetrahydroisoquinolin-7-yl)amino]pyrimidine-5-carboxamide] | 8.79
CNCc1ccccc1Nc1nc(Nc2cc3c(cc2OC)CCN(C)C3)ncc1C(N)=O [Example 2-4, 2-[(6-methoxy-2-methyl-1,2,3,4-tetrahydroisoquinolin~7-yl)amino]-4-({2-[(methylamino)methyl]-phenyl}amino)pyrimidine-5-carboxamide] | 9.20
COc1cc2c(cc1Nc1ncc(C(N)=O)c(Nc3cccc(C(C)N)c3)n1)CN(C)CC2 (stereo not shown) [Example 2-5, 4-{[3-(1-aminoethyl)phenyl]-amino}-2-[(6-methoxy-2-methyl-1,2,3,4-tetrahydroisoquinolin-7-yl)amino]pyrimidine-5-carboxamide] | 9.60
CC(N)c1cccc(Nc2nc(Nc3cc4c(cc3Cl)CCN(C)C4)ncc2C(N)=O)c1 (stereo not shown) [Example 2-6, 4-{[3-(1-aminoethyl)phenyl]-amino}-2-[(6-chloro-2-methyl-1,2,3,4-tetrahydroisoquinolin-7-yl)amino]pyrimidine-5-carboxamide] | 9.27
CC(N)c1cccc(Nc2nc(Nc3cc4c(cc3F)CCN(C)C4)ncc2C(N)=O)c1 (stereo not shown) [Example 2-7, 4-{[3-(1-aminoethyl)phenyl]-amino}-2-[(6-fluoro-2-methyl-1,2,3,4-tetrahydroisoquinolin-7-yl)amino]pyrimidine-5-carboxamide] | 9.62

SMILES | pIC50
COc1cc2c(cc1Nc1ncc(C(N)=O)c(Nc3cccc(CNC(=O)C4(F)CC4)c3)n1)CN(C)CC2 [Example 3-1, 4~[(3~{[(1-fluorocyclo-propane-1-carbonyl)amino]-methyl}phenyl)amino]-2-[(6-methoxy-2-methyl-1,2,3,4-tetrahydroiso-quinolin-7-yl)amino]-pyrimidine-5-carboxamide] | 9.25
COc1cc2c(cc1Nc1ncc(C(N)=O)c(Nc3c(F)cccc3Br)n1)CN(C)CC2 [Example 4-4, 4-[(2-bromo-6-fluorophenyl)amino]-2-[(6-methoxy-2-methyl-1,2,3,4-tetrahydroisoquinolin-7-yl)amino]pyrimidine-5-carboxamide] | 9.92
Cc1cccc(F)c1Nc1nc(Nc2cc3c(cc2Cl)CCN(C)C3)ncc1C(N)=O [Example 4-5, 2-[(6-chloro-2-methyl-1,2,3,4-tetrahydroisoquinolin-7-yl)amino]-4-[(2-fluoro-6-methylphenyl)amino] pyrimidine-5-carboxamide] | 9.21
Cc1cccc(F)c1Nc1nc(Nc2cc3c(cc2F)CCN(C)C3)ncc1C(N)=O [Example 4-6] | 9.96
COc1cc2c(cc1Nc1ncc(C(N)=O)c(Nc3c(F)cccc3C#N)n1)CN(C)CC2 [Example 4-9] | 8.25
COc1cc2c(cc1Nc1ncc(C(N)=O)c(Nc3ccc(F)cc3F)n1)CN(C)CC2 [Example 4-10, 4-[(2,4-difluorophenyl)amino]-2-[(6-methoxy-2-methyl-1,2,3,4-tetrahydroisoquinolin-7-yl)amino]pyrimidine-5-carboxamide] | 8.87
COc1cc2c(cc1Nc1ncc(C(N)=O)c(Nc3cc(F)ccc3F)n1)CN(C)CC2 [Example 4-11, 4-[(2,5-difluorophenyl)amino]-2-[(6-methoxy-2-methyl-1,2,3,4-tetrahydroisoquinolin-7-yl)amino]pyrimidine-5-carboxamide] | 9.26
COc1cc2c(cc1Nc1ncc(C(N)=O)c(Nc3cccc(Cl)c3F)n1)CN(C)CC2 [Example 4-12, 4-[(3-chloro-2-fluorophenyl)amino]-2-[(6-methoxy-2-methyl-1,2,3,4-tetrahydroisoquinolin-7-yl)amino]pyrimidine-5-carboxamide] | 9.19
COc1cc2c(cc1Nc1ncc(C(N)=O)c(Nc3ccc(F)c(F)c3F)n1)CN(C)CC2 [Example 4-13, 2-[(6-methoxy-2-methyl-1,2,3,4-tetrahydroisoquinolin-7-yl)amino]-4-[(2,3,4-trifluorophenyl)amino] pyrimidine-5-carboxamide] | 8.62
COc1cc2c(cc1Nc1ncc(C(N)=O)c(Nc3cccc(C)c3F)n1)CN(C)CC2 [Example 4-14] | 9.74
COc1cc(F)c(Nc2nc(Nc3cc4c(cc3OC)CCN(C)C4)ncc2C(N)=O)c(F)c1 [Example 4-15, 4-[(2,6-difluoro-4-methoxyphenyl)amino]-2-[(6-methoxy-2-methyl-1,2,3,4-tetrahydroisoquinolin-7-yl)amino]pyrimidine-5-carboxamide] | 9.28
COc1cc2c(cc1Nc1ncc(C(N)=O)c(Nc3c(F)ccc(C)c3Cl)n1)CN(C)CC2 [Example 4-16] | 10.00
COc1cc2c(cc1Nc1ncc(C(N)=O)c(Nc3c(O)cccc3F)n1)CN(C)CC2 [Example 4-17, 4-[(2-fluoro-6-hydroxyphenyl)amino]-2-[(6-methoxy-2-methyl-1,2,3,4-tetrahydroisoquinolin-7-yl)amino]pyrimidine-5-carboxamide] | 9.00
COc1cc2c(cc1Nc1ncc(C(N)=O)c(Nc3cc(C)ccc3Cl)n1)CN(C)CC2 [Example 4-18, 4-[(2-chloro-5-methylphenyl)amino]-2-[(6-methoxy-2-methyl-1,2,3,4-tetrahydroisoquinolin-7-yl)amino]pyrimidine-5-carboxamide] | 9.32
COc1cc2c(cc1Nc1ncc(C(N)=O)c(Nc3ccc(C)cc3Cl)n1)CN(C)CC2 [Example 4-19, 4-[(2-chloro-4-methylpheny 1)amino]-2-[(6-methoxy-2-methyl-1,2,3,4-tetrahydroisoquinolin-7-yl)amino]pyrimidine-5-carboxamide] | 9.42

Reference: US20230416225A1, “DIAMINOPYRIMIDINE CARBOXAMIDE INHIBITORS OF HPK1” (MERCK SHARP & DOHME LLC, priority 2020, published 2023)
